Usually Kd stands for the constant that tells how readily two partners part at equilibrium. For orientation: IC50 means the concentration at which inhibition is half-maximal.

Counter-ions that a name gives are not always drawn. Like-named read-outs stand apart in the source and are kept apart here. Starred links: 1 amine or outer side, 2 acyl side, 3 side chain; linkers in the order of their positions; H or OH if unused. Positions of bridges follow the written chain, without caps; N, C: chain ends. Non-standard residues stand in square brackets, D forms with d. Residues, ends and D or L forms follow the SMILES beside them. Trp(5-OH) = N[C@@H](Cc1c[nH]c2ccc(O)cc12)C(=O)O; NMePhe(4-F) = CN[C@@H](Cc1ccc(F)cc1)C(=O)O; NMehPhe = CN[C@@H](CCc1ccccc1)C(=O)O; Gly(cPr) = N[C@H](C(=O)O)C1CC1; NMehCys = CN[C@@H](CCS)C(=O)O; NMeDab = CN[C@@H](CCN)C(=O)O; NMeK = CN[C@@H](CCCCN)C(=O)O; NMeC = CN[C@@H](CS)C(=O)O; NMeS = CN[C@@H](CO)C(=O)O; hCys = N[C@@H](CCS)C(=O)O; Dap = NC[C@H](N)C(=O)O; X5 = O=C(C[*:2])[*:1]

For data set [1], the target named is T1, mouse HER2 (23-653) (Mus musculus, UniProt P70424). Put plainly: Surface plasmon resonance (SPR) for assessment of peptide affinity, mouse HER2. The class given is binding. On the set-up: mouse HER2 (23-653) using a Cy5 labeled peptide as a probe; made in house. The following applies: SPR, mouse HER2 extracellular domain, 25° C., 1:1 binding model; read-out: moHER2-SPR-ONC KD. An excerpt: Each protein was immobilized either onto a SA sensorchip (Cytiva, BR-1005-31) or CM5 sensorchip (Cytiva, BR-1005-30) to a density of 800-2000 RU.
(SPR reads the build-up and loss of mass on a sensor chip optically.)

In data set [2] the target is T1, mouse HER2 (23-653). Put plainly: TR-FRET competition assay for peptide potency, mouse HER2. The class given is binding. The arrangement: mouse HER2 (23-653) using a Cy5 labeled peptide as a probe; made in house; host or cells: mammalian cells. The conditions noted are these: TR-FRET competition with Cy5 labeled peptide probe, 0.1 nM mouse HER2, 24 h incubation; read-out: moHER2 TR-FRET IC50. In general terms: TR-FRET usually uses a lanthanide donor and a delayed reading to cut background.

The target in data set [3] is T2, human HER2 (23-652) (Homo sapiens, UniProt P04626). Put plainly: TR-FRET competition assay for peptide potency, human HER2. The class given is binding. The arrangement: towards human HER2 (23-652) and mouse HER2 (23-653); made in house; host or cells: mammalian cells.
Data set [4] concerns the target T2, human HER2 (23-652). Put plainly: Surface plasmon resonance (SPR) for assessment of peptide affinity, human HER2. The class given is binding. The arrangement: towards human HER2 (23-652) and mouse HER2 (23-653); made in house. The gist of the method: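 Binding kinetics fitted from sensorgrams with 280 s peptide association then 3000 s dissociation (30 uL/min), using HER2 (23-652) either directly immobilized (SA/CM5) or anti-Fc-captured; 3 M magnesium chloride used for regeneration.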

[5] abbreviates: SPR, human HER2 extracellular domain, 25° C., 1:1 binding model, read-out: huHER2-SPR-ONC KD.

For “((S)-2-((3S,6S,9S,12S,15S,18S,21S,24S,27S)-9-((1H-indol-3-yl)methyl)-27-acetamido-15-(4-acetamidobutyl)-6-cyclopropyl-12-((5-hydroxy-1H-indol-3-yl)methyl)-24-(4-hydroxybenzyl)-21-(hydroxymethyl)-N,4,16,19-tetramethyl-5,8,11,14,17,20,23,26,31-nonaoxo-18-phenethyl-1,4,7,10,13,16,19,22,25-nonaazacyclohentriacontane-3-carboxamido)-3-(4-fluorophenyl) propanoyl)-L-lysine TFA Salt”, where the note is “amide bond, 31-membered ring, HATU/DIEA, DMF, resin, 10.0 mM, with chain assembly”, the ring closure, yield after HPLC was determined as 2.4%.
Regarding “2-(4-(((S)-5-((S)-2-((3S,6S,9S,12S,15S,18S,21S,24S,27S)-9-((1H-indol-3-yl)methyl)-15-(4-acetamidobutyl)-27-(3-aminopropanamido)-12-((5-hydroxy-1H-indol-3-yl)methyl)-24-(4-hydroxybenzyl)-6-((S)-1-hydroxyethyl)-21-(hydroxymethyl)-N,4,16,19-tetramethyl-5,8,11,14,17,20,23,26,30-nonaoxo-18-phenethyl-1,4,7,10,13,16,19,22,25-nonaazacyclotriacontane-3-carboxamido)-3-(4-fluorophenyl)propanamido)-6-amino-6-oxohexyl)carbamoyl)piperazin-1-yl) acetic acid TFA salt”, the ring closure, yield after HPLC (amide bond, 30-membered ring, DIC/Oxyma, DMF, resin, […], 75.0 °C, with chain assembly) worked out at 4.7%.
“Fmoc-hGlu-Tyr-Ser-MehPhe-MeLys(Ac)-Trp(5-OH)-Trp-Gly(cPr)-MeDap-MePhe(4-F)-Lys(N3)-NH2?”: where the note is “the molecule shown is the open-chain precursor, amide bond, 31-membered ring, HATU/2,6-lutidine, DMF/DCM 1:10, 0.76 mM”, the ring closure, yield after HPLC came out at 64%.
For “(4R,7S,10S,13S,16S,19S,22S,25S,28R)-10-((1H-indol-3-yl)methyl)-28-amino-N—((S)-1-amino-3-(4-fluorophenyl)-1-oxopropan-2-yl)-7-cyclopropyl-13-((5-hydroxy-1H-indol-3-yl)methyl)-25-(4-hydroxybenzyl)-16,22-bis(hydroxymethyl)-N,5,17,20-tetramethyl-6,9,12,15,18,21,24,27-octaoxo-19-phenethyl-1,2-dithia-5,8,11,14,17,20,23,26-octaazacyclononacosane-4-carboxamide TFA salt”, where the note is “disulfide bond, 29-membered ring, DMSO (air), DMSO/water 1/4, 1.88 mM, […]”, the ring closure, yield after HPLC amounted to 26%.
For “(3R,6S,9S,12S,15S,18S,21S,24S,27S)-9-((1H-indol-3-yl)methyl)-27-amino-N—((S)-1-amino-3-(4-fluorophenyl)-1-oxopropan-2-yl)-6-cyclopropyl-12-((5-hydroxy-1H-indol-3-yl)methyl)-24-(4-hydroxybenzyl)-15,21-bis(hydroxymethyl)-N,4,16,19-tetramethyl-5,8,11,14,17,20,23,26,30-nonaoxo-18-phenethyl-1-thia-4,7,10,13,16,19,22,25,29-nonaazacyclohentriacontane-3-carboxamide TFA salt”, the ring closure, yield after HPLC (thioether bond, 31-membered ring, DIEA, then pyrrolidine, ACN/water, […], with chain assembly) was determined as 1%.
Regarding “2-(4-(((11S,48S)-48-((S)-2-((3S,6S,9S,12S,15S,18S,21S,24S,27S)-9-((1H-indol-3-yl)methyl)-27-acetamido-15-(4-acetamidobutyl)-12-((5-hydroxy-1H-indol-3-yl)methyl)-24-(4-hydroxybenzyl)-6-((S)-1-hydroxyethyl)-21-(hydroxymethyl)-N,4,16,19-tetramethyl-5,8,11,14,17,20,23,26,30-nonaoxo-18-phenethyl-1,4,7,10,13,16,19,22,25-nonaazacyclotriacontane-3-carboxamido)-3-(4-fluorophenyl)propanamido)-11-carbamoyl-5,13,47-trioxo-1-((3aS,4S,6aR)-2-oxohexahydro-1H-thieno[3,4-d]imidazol-4-yl)-16,19,22,25,28,31,34,37,40,43-decaoxa-6,12,46-triazadopentacontan-52-yl) carbamoyl) piperazin-1-yl) acetic acid TFA salt”, the ring closure, yield after HPLC (amide bond, 30-membered ring, PyAOP/DIEA, DMF, resin, […], 50.0 °C, with chain assembly) was found to be 1.9%.
Consider `CN1C(=O)[C@H](CO)NC(=O)[C@H](Cc2ccc(O)cc2)NC(=O)[C@@H](N)CNC(=O)CSC[C@@H](C(=O)N(C)[C@@H](Cc2ccc(F)cc2)C(N)=O)N(C)C(=O)[C@H](C2CC2)NC(=O)[C@H](Cc2c[nH]c3ccccc23)NC(=O)[C@H](Cc2c[nH]c3ccc(O)cc23)NC(=O)[C@H](CO)N(C)C(=O)[C@@H]1CCc1ccccc1` [Example A53, (3R,6S,9S,12S,15S,18S,21S,24S,27S)-9-((1H-indol-3-yl)methyl)-27-amino-N—((S)-1-amino-3-(4-fluorophenyl)-1-oxopropan-2-yl)-6-cyclopropyl-12-((5-hydroxy-1H-indol-3-yl)methyl)-24-(4-hydroxybenzyl)-15,21-bis(hydroxymethyl)-N,4,16,19-tetramethyl-5,8,11,14,17,20,23,26,30-nonaoxo-18-phenethyl-1-thia-4,7,10,13,16,19,22,25,29-nonaazacyclohentriacontane-3-carboxamide TFA salt] (H-[Dap]YS[NMehPhe][NMeS][Trp(5-OH)]W[Gly(cPr)][NMeC][NMePhe(4-F)]-NH2; linker 1-9 via X5), for which the Kd was 0.154 µM on mouse HER2 (23-653) [1] and 0.132 µM on human HER2 (23-652) [4]. The IC50 on mouse HER2 (23-653) [2] came out at 0.466 µM; at human HER2 (23-652) [3] (huHER2 TR-FRET IC50, TR-FRET competition with Cy5 labeled peptide probe, 0.1 nM human HER2, 24 h incubation), 0.163 µM.
As to `CC(=O)NCCCC[C@H]1C(=O)N[C@@H](Cc2c[nH]c3ccc(O)cc23)C(=O)N[C@@H](Cc2c[nH]c3ccccc23)C(=O)N[C@@H](C2CC2)C(=O)N(C)[C@H](C(=O)N(C)[C@@H](Cc2ccc(F)cc2)C(N)=O)CCSSCC[C@H](N)C(=O)N[C@@H](Cc2ccc(O)cc2)C(=O)N[C@@H](CO)C(=O)N(C)[C@@H](CCc2ccccc2)C(=O)N1C` [Example A55, (5S,8S,11S,14S,17S,20S,23S,26S,29S)-11-((1H-indol-3-yl)methyl)-17-(4-acetamidobutyl)-29-amino-N-((S)-1-amino-3-(4-fluorophenyl)-1-oxopropan-2-y1)-8-cyclopropyl-14-((5-hydroxy-1H-indol-3-yl)methyl)-26-(4-hydroxybenzyl)-23-(hydroxymethyl)-N,6,18,21-tetramethyl-7,10,13,16,19,22,25,28-octaoxo-20-phenethyl-1,2-dithia-6,9,12,15,18,21,24,27-octaazacyclohentriacontane-5-carboxamide TFA salt] (H-[hCys]YS[NMehPhe][NMeK](Ac)[Trp(5-OH)]W[Gly(cPr)][NMehCys][NMePhe(4-F)]-NH2; disulfide 1-9), the dissociation constant Kd on mouse HER2 (23-653) [1] stood at 0.148 µM; on human HER2 (23-652) [4] (setting [5]) it was 0.178 µM. Besides, the IC50 turned out to be 0.287 µM at mouse HER2 (23-653) [2] and 0.097 µM at human HER2 (23-652) [3] (read-out: huHER2 TR-FRET IC50).
On the same counts, the results for `CC(=O)NCCCC[C@H]1C(=O)N[C@@H](Cc2c[nH]c3ccc(O)cc23)C(=O)N[C@@H](Cc2c[nH]c3ccccc23)C(=O)N[C@@H](C2CC2)C(=O)N(C)[C@H](C(=O)N(C)[C@@H](Cc2ccc(F)cc2)C(=O)N[C@@H](CCCCNC(=O)c2ccc(F)nc2)C(N)=O)CNC(=O)CCC[C@H](NC(C)=O)C(=O)N[C@@H](Cc2ccc(O)cc2)C(=O)N[C@@H](CO)C(=O)N(C)[C@@H](CCc2ccccc2)C(=O)N1C` [Example F1] are 0.0003 µM, under 0.0001 µM, 0.0002 µM and under 0.0001 µM.
Take `CC(=O)N[C@H]1CC(=O)NCC[C@@H](C(=O)N(C)[C@@H](Cc2ccc(F)cc2)C(N)=O)N(C)C(=O)[C@H](C2CC2)NC(=O)[C@H](Cc2c[nH]c3ccccc23)NC(=O)[C@H](Cc2c[nH]c3ccc(O)cc23)NC(=O)[C@H](CO)N(C)C(=O)[C@H](CCc2ccccc2)N(C)C(=O)[C@H](CO)NC(=O)[C@H](Cc2ccc(O)cc2)NC1=O` [Example A9, (2S,5S,8S,11S,14S,17S,20S,23S,29S)-17-((1H-indol-3-yl)methyl)-29-acetamido-N-((S)-1-amino-3-(4-fluorophenyl)-1-oxopropan-2-yl)-20-cyclopropyl-14-((5-hydroxy-1H-indol-3-yl)methyl)-2-(4-hydroxybenzyl)-5,11-bis(hydroxymethyl)-N,7,10,22-tetramethyl-3,6,9,12,15,18,21,27,30-nonaoxo-8-phenethyl-1,4,7,10,13,16,19,22,26-nonaazacyclotriacontane-23-carboxamide] (Ac-DYS[NMehPhe][NMeS][Trp(5-OH)]W[Gly(cPr)][NMeDab][NMePhe(4-F)]-NH2; lactam 1-9): the equilibrium dissociation constant (Kd) on mouse HER2 (23-653) [1] amounted to 0.243 µM; on human HER2 (23-652) [4] (setting [5]), 0.117 µM. Besides, the values for the IC50 on mouse HER2 (23-653) [2] and at human HER2 (23-652) [3] (read-out: huHER2 TR-FRET IC50) were 0.172 µM and 0.075 µM, respectively.

These data come from patent publication US20250332300A1 (priority 2024, published 2025).
